Data taken from PMC9037180, “Ligand-based design and synthesis of N'-Benzylidene-3,4-dimethoxybenzohydrazide derivatives as potential antimicrobial agents; evaluation by in vitro, in vivo, and in silico approaches with SAR studies” (Journal of Enzyme Inhibition and Medicinal Chemistry, 2022).
Where two headings read alike, the source gives them in different places.

Tests used:
NFKB2 = format: in vivo, rats; conditions: Mean ± SE
Protocol: (§1) Rats were divided randomly into equal fifteen groups, each containing 9 rats as follows: • Group 1: Rats were kept on standard laboratory chow and water ad libitum to serve as a control. • Group 2: Rats have injected IP with sterile distilled water (4ml/kg) daily for one week to serve as a control. • Group 3: Rats have injected IP with DEMSO (dimethyl sulfoxide) (4 ml/kg) daily for one week to serve as a control. • Group 4: Rats have injected IP with 4h (1.9 mg/kg) daily for one week. • Group 5: Rats have injected IP with 4h (3.8 mg/kg) daily for one week. • Group 6: Rats have injected IP with 4i (1.9 mg/kg) daily for one week. • Group 7: Rats have injected IP with 4i (3.8 mg/kg) daily for one week. • Group 8: Rats were infected by a single IM injection of S. aureus strain [1.0 ml) 1 × 10^7) colony-forming units]. • Group 9: Rats have injected IP with 4h (1.9 mg/kg) daily for one week on the 7th day after induction of infection by a single IM injection of S. aureus strain [1.0 ml (1 × 10^7) colony-forming units. • Group 10: Rats have injected IP with 4h (3.8 mg/kg) daily for one week on the 7th day after induction of infection by a single IM injection of S. aureus strain [1.0 ml (1 × 10^7) colony-forming units]. • Group 11: Rats were infected by a single IM injection of S. typhi strain [1.0 ml (1 × 10^7) colony forming units). • Group 12: Rats have injected IP with 4h (1.9 mg/kg) daily for one week. on the 7th day after induction of infection by a single IM injection of S. typhi strain [1.0 ml (1 × 10^7) colony-forming units]. • Group 13: Rats have injected IP with 4h (3.8 mg/kg) daily for one week on the 7th day after infection by a single IM injection of S. typhi strain [1.0 ml (1 × 10^7) colony-forming units]. • Group 14: Rats have injected IP with 4i (1.9 mg/kg) daily for one week. on the 7th day after induction of infection by a single IM injection of S. typhi strain [1.0 ml (1 × 10^7) colony-forming units]. • Group 15: Rats have injected IP with 4i (3.8 mg/kg) daily for one week. on the 7th day after induction of infection by a single IM injection of Salmonella strain [1.0 ml (1 × 10^7) colony-forming units].
Immunohistochemistry (IHC) was performed on paraffin sections and mounted on positively charged slides to detect caspase-3 as an indicator for apoptosis and nuclear factor kappa-light-chain-enhancer of activated B cells (NFKB2) for inflammation by using the avidin-biotin-peroxidase complex (ABC) method. The exact methodology was carried out as previously described in detail.
Caspase-3 and NFKB2 immunostaining were measured as area % in a standard measuring frame in representative five fields for each subject (liver and kidneys) in all groups using 100x magnification via light microscopy transferred to the screen. […]

[1] = Cytotoxicity on cells using MTT assay; format: cell-based; conditions: African green monkey, Vero cells (normal mammalian cell line)
Protocol: The newly synthesised compounds were looked deeply into their efficacy using in silico, in vitro, and in vivo approaches. On the other hand, the cytotoxicity assay was performed for the tested compounds using a normal mammalian Vero cell line by the MTT assay[31]^,[32].
Moreover, the cytotoxicity values of the target compounds were determined to calculate their corresponding IC50 values through the MTT assay. The IC50 value indicates the compound’s concentration that is required to inhibit 50% of the target cells.
The MTT (3–(4,5-dimethylthiazol-2-yl)-2,5-diphenyltetrazolium bromide) tetrazolium reduction assay protocol was applied to determine the cytotoxicity of the target compounds (4a–j) on cells.

S. aureus [2] = test: Biochemical analysis in S. aureus-infected rats; format: in vivo; conditions: first and second dose (1.9 and 3.8 mg/kg IP daily for one week)
Protocol: The compounds 4h and 4j were dissolved in DMSO (dimethyl sulfoxide) then further dilutions were made by using sterile distilled water. The doses of both candidates were calculated according to the method given by Paget and Barnes[60]. Sterile distilled water, DEMSO, and investigated compounds (4h (1.9 and 3.8 mg/kg) and 4j (1.9 and 3.8 mg/kg)) were injected in a volume of 4 ml/kg[61]. The experiment lasts two weeks, the 1st week for induction of infection in the infected groups and the 2nd week for the administration of the compounds in all groups. […]
ALT and AST were determined[66] using commercial kits obtained from Diamond Diagnostics, Egypt.
Serum urea was determined by using the modified Berthelot–Searcy method. Serum creatinine activity was also assessed by using the application of Jaffe’s reaction.
Serum levels of the pro-inflammatory cytokine, TNF-α, were determined by the quantitative enzyme immunoassay (EIA) kit purchased from R&D Systems (USA) according to the method of Howard and Harada[69], while that of anti-inflammatory cytokine IL-10 was according to Croft et al.. […]

S. aureus [3] = test: H&E histological examination of liver and kidney, S. aureus infected rats; format: in vivo
Protocol: as §1
At the end of the experiment, the animals were euthanized through cervical dislocation. After that, the liver and kidney were dissected for histological study. The procedure for histological preparations was described by Bancroft and Stevens[73]. Briefly, liver and kidney tissues were sliced to 3–4 mm thick, fixed in 10% neutral buffered formalin (10% NBF), dehydrated in graded concentrations of ethanol, cleared in xylene, and embedded in paraffin. The paraffin blocks were sectioned with a microtome at (4–6 μm) thickness and dyed with H & E stain to study the general tissue structure.

Aciento sensitive = test: Minimal bactericidal concentration (MBC); format: cell-based, A. baumanii; conditions: Aciento sensitive
Protocol: After determining the MIC for the target compounds, the minimal bactericidal concentration (MBC) for each compound that is required to kill each one of the above-mentioned microorganisms was assessed.

COc1ccc(C(=O)NN=Cc2ccc3ccccc3n2)cc1OC [Compound 4i, N'-(quinolin-2-ylmethylene)-3,4-dimethoxybenzohydrazide]
NFKB2, Kidney (NFKB2; S. typhi infected rats, 1.9 mg/kg IP daily for one week): 28.693 ± 0.4494 area %
NFKB2, Kidney (NFKB2; S. typhi infected rats, 3.8 mg/kg IP daily for one week): 11.91 ± 1.04 area %
NFKB2, Kidney (NFKB2; uninfected rats, 1.9 mg/kg IP daily for one week): 0.7513 ± 0.0671 area %
NFKB2, Kidney (NFKB2; uninfected rats, 3.8 mg/kg IP daily for one week): 0.4087 ± 0.08844 area %
IC50 [1]: 305 µM

N'-((3a,7a-dihydro-1H-indol-3-yl)methylene)-3,4-dimethoxybenzohydrazide [Compound 4h]
renal and liver functions, oxidative stress and inflammatory markers (urea, creatinine, ALT, AST, GSH, MDA, TNF-α, IL-10) (S. aureus [2]): significant improvement in all the measured parameters
kidney pathological changes (H&E) (S. aureus [3]; high dose (3.8 mg/kg)): marked improved renal tissue
liver pathological changes (H&E) (S. aureus [3]; high dose (3.8 mg/kg)): marked improvement in the pathological changes
kidney pathological changes (H&E) (S. aureus [3]; low dose (1.9 mg/kg)): improved pathological changes
liver pathological changes (H&E) (S. aureus [3]; low dose (1.9 mg/kg)): improved pathological changes
MBC (Aciento sensitive): 96.87 µM
